# Assay results reported in patent US10426718B2, “Compositions and methods for treating hair loss and delaying aging of skin” (Phyto Tech Corp., priority 2012, dated 2019).
# Experiments:
# Type in all cases: in vivo, mouse
# [1] = test system: chronically stressed C57BL/6J mice; test: open field test (OFT) behavioral anxiety test in chronically stressed mice; settings: 1 μM DHM in Vaseline, topical once per day for six weeks
# Experimental: (§1) The effectiveness of DHM in the treatment of stress-induced hair loss was tested using two groups of eight week old C57BL/6J mice. Chronic stress was induced in the first group (n=20) by restraining each mouse in the test group for 3 hours per day for 21 consecutive days in a modified 50 ml clear polystyrene conical centrifuge tube with multiple air holes for ventilation. The second group of mice (n=10) remained undisturbed in their home cages (Fernandex-Vozmediano et al. (1994) “Contact dermatitis due to topical spironolactone.” Contact Dermatitis 30: 118-9; Tresch, et al. (2011) “T cell-mediated acute localized exanthematous pustulosis caused by finasteride.” J Allergy Clin Immunol 129: 589-94). The completion of the 21 day stress-induction cycle was followed by a two day withdrawal. […] The rodents' stress levels were also assessed via elevated plus maze (EPM) and open field test (OFT). […] Within the context of EPM, anxiety-related behavior was measured by the degree to which a mouse avoided the unenclosed arms of the maze. […] In OFT, each mouse was placed on an empty table surrounded by walls, and the mouse's movements and the time it spent moving were monitored. Within the context of OFT, anxiety-related behavior was measured by the degree to which a mouse avoided the open center and stayed close to the walls. […]
# [2] = test system: chronically stressed C57BL/6J mice; test: treatment of stress-induced hair loss (restraint-stressed mice), hair regrowth; settings: 1 μM DHM in 1 oz. Vaseline, topical once per day for six weeks, vs Vaseline alone
# Experimental: as §1
# c57BL/6J mice = test: topical toxicity / allergic reaction test, Vaseline mixed with DHM on shaved skin; settings: Vaseline mixed with 1 g DHM, six weeks
# From the text: To determine whether topical application of DHM is toxic or causes allergic reaction, Vaseline mixed with 1 g DHM was applied to the shaved skin of c57BL/6J mice for six weeks.
# [3] = test system: chronically stressed C57BL/6J mice; test: elevated plus maze (EPM) behavioral anxiety test in chronically stressed mice; settings: for behavioral anxiety (EPM and OFT together): 1 μM DHM, daily topical treatment for 6 weeks, chronically stressed mice
# Experimental: The effectiveness of DHM in the treatment of stress-induced hair loss was tested using two groups of eight week old C57BL/6J mice. Chronic stress was induced in the first group (n=20) by restraining each mouse in the test group for 3 hours per day for 21 consecutive days in a modified 50 ml clear polystyrene conical centrifuge tube with multiple air holes for ventilation. The second group of mice (n=10) remained undisturbed in their home cages (Fernandex-Vozmediano et al. (1994) “Contact dermatitis due to topical spironolactone.” Contact Dermatitis 30: 118-9; Tresch, et al. (2011) “T cell-mediated acute localized exanthematous pustulosis caused by finasteride.” J Allergy Clin Immunol 129: 589-94). The completion of the 21 day stress-induction cycle was followed by a two day withdrawal. […] The rodents' stress levels were also assessed via elevated plus maze (EPM) and open field test (OFT). EPM and OFT are behavioral tests that are commonly used to assess anxiety by measuring a mouse's locomotor activity and willingness to explore. When anxious, rodents naturally prefer enclosed dark spaces to opened brightly lit spaces. In the EPM test, individual mice from each group were placed on a plus-shaped apparatus that was raised from the floor and had two open and two enclosed arms. Within the context of EPM, anxiety-related behavior was measured by the degree to which a mouse avoided the unenclosed arms of the maze. As shown in FIG. 2A and FIG. 2B, the unstressed mice explored the open arms, whereas the chronically stressed mice avoided the open arms and restricted their movements to the closed arms. In OFT, each mouse was placed on an empty table surrounded by walls, and the mouse's movements and the time it spent moving were monitored. Within the context of OFT, anxiety-related behavior was measured by the degree to which a mouse avoided the open center and stayed close to the walls. As shown in FIG. 2C and FIG. 2D, the unstressed mice explored center of the table, whereas the chronically stressed mice avoided the center and remained in the corners. […]
# C57BL/6J male mice [4] = test: induction of anagen on depilated dorsal skin; settings: DHM 10% (w/w-%), 1 ml topical daily, day 8; vs vehicle control; similar to minoxidil 2%; P<0.05, N=10
# From the text: (§2) A total of 40 seven-week-old, wild type C57BL/6J male mice were used for the study. The mice were housed individually (one mouse/cage). The mice were randomly assigned to one of four treatment groups that contained 10 mice per group. The treatment groups included a vehicle control, a positive control (minoxidil 2%), DHM 5% (w/w-%), and DHM 10% (w/w-%).
# (§3) The vehicle used for all treatment groups was a mixture of alcohol denat., propanediol, water, ethylhexylglycerin, and phenoxyethanol. The DHM used in the DHM treatment groups has a purity of 98%.
# (§4) The DHM 10% treatment contained the following percentage concentrations (w/w-%): 20% alcohol denat., 10% DHM, 50% propanediol, 19.5% water, and 0.5% ethylhexylglycerin and phenoxyethanol.
# (§5) The hair of the dorsal skin (2×5 cm) from every mouse was removed by clipping and topical application of calcium thioglycolate to depilate the clipped area. The next day, mice without visible wounds were used for the study. The mice received a daily topical application of 1 ml of their respective treatment per day. Hair regrowth was quantified by analyzing photographs that were taken of each mouse every 4 days after topical treatment for a total of 21 days (day 0, 4, 8, 12, 16, and 21). For each mouse, an area of 3 cm^2 of the back was analyzed. All experiments were continued for 21 days. […]
# C57BL/6J male mice [5] = test: hair regrowth on depilated dorsal skin; settings: DHM 10% (w/w-%), 1 ml topical daily, day 12; vs vehicle control; similar to minoxidil 2%; P<0.05, N=10
# From the text: as §2, §3, §4, §5
structure (smiles),measurement,setting,value
"O=C1c2c(O)cc(O)cc2O[C@H](c2cc(O)c(O)c(O)c2)[C@H]1O [DHM, (2R,3R)-3,5,7-trihydroxy-2-(3,4,5-trihydroxyphenyl)-2,3-dihydrochromen-4-one]",locomotor activity in OFT,[1],significantly increased locomotor activity
same,running distance in OFT,[1],longer running distance comparable to those of unstressed mice
same,hair regrowth on bald spots,[2],hair regrowth was observed
same,hair regrowth on bald spots,[2]; listed as dihydromyricetin,regrowth of hair
same,changes in body weight,c57BL/6J mice,did not exhibit any changes
same,changes in metabolic rate,c57BL/6J mice,did not exhibit any changes
same,"rash, redness, or other responses associated with an allergic reaction",c57BL/6J mice,"did not exhibit rash, redness, or other responses associated with an allergic reaction"
same,willingness to explore the open arms of the EPM apparatus,"[3]; 1 μM DHM in Vaseline, topical once per day for six weeks, compared with unstressed control mice",as willing to explore the open arms of the EPM apparatus as the unstressed control mice
same,behavioral anxiety (EPM and OFT together),[3],reversed
same,behavioral anxiety (EPM and OFT together),[3]; listed as dihydromyricetin,behavioral anxiety was reduced
same,induction of anagen (grading 0-3),C57BL/6J male mice [4],significantly different to treatment with the vehicle control
same,hair regrowth (grading 0-3),C57BL/6J male mice [5],statistically significant increase in hair regrowth
